Test [1] deals with harmful plants such as Digitaria sanguinalis, Echinochloa crus-galli, Setaria faberi, Setaria viridis, Sorghum halepense, Abutilon theophrasti, Amaranthum …. The experiment in a line: Post-emergence effect on weeds (greenhouse pot test). To be noted: application rate of 1 kg and less of active substance per hectare; treated at three-leaf stage; scored visually after about 3 to 4 weeks by comparison with untreated controls. The test is classed as in vivo, monocotyledonous and dicotyledonous weeds. The method, then:
Seeds or rhizome pieces of monocotyledonous and dicotyledonous weeds are placed in sandy loam soil in plastic pots, covered with soil and grown in a greenhouse under good growth conditions. Three weeks after sowing, the test plants are treated at the three-leaf stage. The compounds according to the invention which were formulated as wettable powders or emulsion concentrates are sprayed, at various dosages, onto the green parts of the plants at an application rate of 600 to 800 l of water/ha (converted). After the test plants have remained in the greenhouse for about 3 to 4 weeks under optimum growth conditions, the effect of the preparations is scored visually by comparison with untreated controls. The agents according to the invention also have good herbicidal activity post-emergence against a broad spectrum of economically important weed grasses and broad-leafed weeds.

Test [2] has as its system weed plants such as Digitaria sanguinalis, Echinochloa crus-galli, Setaria faberi, Setaria viridis, Sorghum halepense, Abutilon theophrasti, Amaranthum …. The experiment in a line: Pre-emergence effect on weeds (greenhouse pot test). The test is classed as in vivo, monocotyledonous and dicotyledonous weed plants. To be noted: application rate of 1 kg or less of active substance per hectare; scored visually after 3 to 4 weeks by comparison with untreated controls. The source says:
Seeds or rhizome pieces of monocotyledonous and dicotyledonous weed plants are placed in sandy loam soil in plastic pots and covered with soil. The compounds according to the invention which are formulated in the form of wettable powders or emulsion concentrates are then applied to the surface of the soil cover in the form of aqueous suspensions or emulsions at an application rate of 600 to 800 l of water/ha (converted), in various dosages.
After the treatment, the pots are placed in a greenhouse and kept under good growth conditions for the weeds. After the test plants have emerged, the damage to the plants or the negative effect on the emergence is scored visually after a test period of 3 to 4 weeks by comparison with untreated controls. As shown by the test results, compounds according to the invention have good herbicidal pre-emergence activity against a broad spectrum of weed grasses and broad-leafed weeds.

Regarding `CC(C)(F)c1nc(N)nc(NC2CCN(c3cccc(OC(F)(F)F)c3)C2=O)n1` (stereo not shown) [Example A31], the herbicidal activity post-emergence result in test [1] was “very good herbicidal activity”. For the same compound, the herbicidal activity pre-emergence result in test [2] is listed as “very good herbicidal activity”.

As for `Cc1cc(N2CCC(Nc3nc(N)nc(C(C)(C)F)n3)C2)ccc1F` (stereo not shown) [Example E10], the herbicidal activity post-emergence result in test [1] was “very good herbicidal activity”. For the same compound, the herbicidal activity pre-emergence result in test [2] is given as “very good herbicidal activity”.

In the case of `Cc1cc(N2CCC(Nc3nc(N)nc(C(C)F)n3)C2)ccc1F` (stereo not shown) [Example E11], the herbicidal activity post-emergence entry in test [1] is recorded as “very good herbicidal activity”. In test [2], the herbicidal activity pre-emergence result is listed as “very good herbicidal activity”.

With `Cc1cccc(N2CCC(Oc3nc(N)nc(C(C)F)n3)C2=O)c1` (stereo not shown) [Example A38], in test [1], the herbicidal activity post-emergence entry was “very good herbicidal activity”. The herbicidal activity pre-emergence entry in test [2] is on record as “very good herbicidal activity”.

`Cc1cccc(N2CCC(Nc3nc(N)nc(C(C)F)n3)C2)c1` (stereo not shown) [Example E8]: the herbicidal activity post-emergence result in test [1] was “very good herbicidal activity”. Further, the herbicidal activity pre-emergence entry in test [2] is reported as “very good herbicidal activity”.

With `CC(C)(F)c1nc(N)nc(NC2CCN(c3cccc(C(F)(F)F)c3)C2)n1` (stereo not shown) [Example E19], the herbicidal activity post-emergence result in test [1] is reported as “very good herbicidal activity”. Moreover, the herbicidal activity pre-emergence result in test [2] is recorded as “very good herbicidal activity”.

In the case of `Cc1cc(N2CCC(Nc3nc(N)nc(C(C)(C)F)n3)C2=O)ccc1F` (stereo not shown) [Example A29], the herbicidal activity post-emergence entry in test [1] is “very good herbicidal activity”. In test [2], the herbicidal activity pre-emergence result is given as “very good herbicidal activity”.

Consider `CC(C)c1nc(N)nc(N(C)C2CCN(c3cccc(F)c3)C2=O)n1` (stereo not shown) [Example A76], for which the herbicidal activity post-emergence result in test [1] is given as “very good herbicidal activity”. Further, the herbicidal activity pre-emergence result in test [2] was “very good herbicidal activity”.

Regarding `CC(C)c1nc(N)nc(NC2CCN(c3cccc(Cl)c3)C2=O)n1` (stereo not shown) [Example A27], the herbicidal activity post-emergence entry in test [1] is reported as “very good herbicidal activity”. In test [2], the herbicidal activity pre-emergence entry is listed as “very good herbicidal activity”.

`CC(F)c1nc(N)nc(NC2CCN(c3cccc(OC(F)(F)F)c3)C2=O)n1` (stereo not shown) [Example A17]: in test [1], the herbicidal activity post-emergence entry is reported as “very good herbicidal activity”. Also, the herbicidal activity pre-emergence result in test [2] is given as “very good herbicidal activity”.

On to `Cc1cccc(N2CCC(Oc3nc(N)nc(C(C)(C)F)n3)C2=O)c1` (stereo not shown) [Example A56], for which the herbicidal activity post-emergence result in test [1] is “very good herbicidal activity”. Further, the herbicidal activity pre-emergence entry in test [2] is “very good herbicidal activity”.

On to `Cc1cc(C)cc(N2CCC(N(C)c3nc(N)nc(C(C)(C)F)n3)C2)c1` (stereo not shown) [Example E50], for which the herbicidal activity post-emergence entry in test [1] is “very good herbicidal activity”. Besides, the herbicidal activity pre-emergence entry in test [2] is recorded as “very good herbicidal activity”.

For the compound `CC(C)c1nc(N)nc(NC2CCN(c3cccc(F)c3)C2)n1` (stereo not shown) [Example E15], the herbicidal activity post-emergence result in test [1] is listed as “very good herbicidal activity”. Further, the herbicidal activity pre-emergence result in test [2] is given as “very good herbicidal activity”.

Take `CC(C)(F)c1nc(N)nc(NC2CCN(c3cccc(OC(F)(F)F)c3)C2)n1` (stereo not shown) [Example E22]: in test [1], the herbicidal activity post-emergence entry is reported as “very good herbicidal activity”. In addition, the herbicidal activity pre-emergence entry in test [2] is “very good herbicidal activity”.

As to `CC(C)c1nc(N)nc(OC2CCN(c3cccc(F)c3)C2=O)n1` (stereo not shown) [Example A53], in test [1], the herbicidal activity post-emergence result is given as “very good herbicidal activity”. In test [2], the herbicidal activity pre-emergence entry is “very good herbicidal activity”.

On to `COc1cccc(N2CCC(Oc3nc(N)nc(C(C)C)n3)C2=O)c1` (stereo not shown) [Example A50], for which the herbicidal activity post-emergence result in test [1] was “very good herbicidal activity”. The herbicidal activity pre-emergence result in test [2] is reported as “very good herbicidal activity”.

Regarding `CC(C)(F)c1nc(N)nc(NC2CCN(c3cccc(C(F)(F)F)c3)C2=O)n1` (stereo not shown) [Example A32], the herbicidal activity post-emergence entry in test [1] is “very good herbicidal activity”. Also, in test [2], the herbicidal activity pre-emergence entry is “very good herbicidal activity”.

Turning to `Cc1cc(C)cc(N2CCC(Nc3nc(N)nc(C(C)(C)F)n3)C2=O)c1` (stereo not shown) [Example A34], the herbicidal activity post-emergence entry in test [1] is listed as “very good herbicidal activity”. The herbicidal activity pre-emergence entry in test [2] is listed as “very good herbicidal activity”.

Turning to `CC(F)c1nc(N)nc(NC2CCN(c3cccc(C(F)(F)F)c3)C2=O)n1` (stereo not shown) [Example A12], the herbicidal activity post-emergence entry in test [1] is listed as “very good herbicidal activity”. Also, in test [2], the herbicidal activity pre-emergence result is “very good herbicidal activity”.

Take `Cc1cc(C)cc(N2CCC(Nc3nc(N)nc(C(C)C)n3)C2=O)c1` (stereo not shown) [Example A23]: the herbicidal activity post-emergence entry in test [1] is recorded as “very good herbicidal activity”. Further, the herbicidal activity pre-emergence result in test [2] is reported as “very good herbicidal activity”.

As to `Cc1cc(C)cc(N2CCC(Nc3nc(N)nc(C(C)C)n3)C2)c1` (stereo not shown) [Example E27], in test [1], the herbicidal activity post-emergence entry was “very good herbicidal activity”. For the same compound, in test [2], the herbicidal activity pre-emergence entry was “very good herbicidal activity”.

For `Cc1nc(N)nc(NC2CCN(c3cccc(F)c3)C2=O)n1` (stereo not shown) [Example A1], the herbicidal activity post-emergence result in test [1] is “very good herbicidal activity”. In addition, the herbicidal activity pre-emergence entry in test [2] is given as “very good herbicidal activity”.

For `CC(F)c1nc(N)nc(NC2CCN(c3cccc(Cl)c3)C2=O)n1` (stereo not shown) [Example A18], the herbicidal activity post-emergence entry in test [1] was “very good herbicidal activity”. Moreover, the herbicidal activity pre-emergence result in test [2] is on record as “very good herbicidal activity”.

`Cc1nc(N)nc(NC2CCN(c3cccc(Cl)c3)C2=O)n1` (stereo not shown) [Example A9]: in test [1], the herbicidal activity post-emergence entry is reported as “very good herbicidal activity”. For the same compound, the herbicidal activity pre-emergence result in test [2] is “very good herbicidal activity”.

For `CC(C)c1nc(N)nc(N(C)C2CCN(c3cccc(C(F)(F)F)c3)C2)n1` (stereo not shown) [Example E66], in test [1], the herbicidal activity post-emergence result is “very good herbicidal activity”. The herbicidal activity pre-emergence entry in test [2] is on record as “very good herbicidal activity”.

As for `CC(C)c1nc(N)nc(NC2CCN(c3cccc(Cl)c3)C2)n1` (stereo not shown) [Example E18], the herbicidal activity post-emergence result in test [1] is listed as “very good herbicidal activity”. For the same compound, the herbicidal activity pre-emergence entry in test [2] was “very good herbicidal activity”.

Take `Cc1cc(C)cc(N2CCC(Nc3nc(C)nc(N)n3)C2=O)c1` (stereo not shown) [Example A5]: the herbicidal activity post-emergence entry in test [1] is on record as “very good herbicidal activity”. The herbicidal activity pre-emergence result in test [2] was “very good herbicidal activity”.

For `CC(C)c1nc(N)nc(OC2CCN(c3ccccc3)C2=O)n1` (stereo not shown) [Example A45], the herbicidal activity post-emergence entry in test [1] is on record as “very good herbicidal activity”. Further, the herbicidal activity pre-emergence result in test [2] is reported as “very good herbicidal activity”.

For the compound `Cc1cc(N2CCC(Oc3nc(N)nc(C(C)C)n3)C2=O)ccc1F` (stereo not shown) [Example A49], in test [1], the herbicidal activity post-emergence result is recorded as “very good herbicidal activity”. In test [2], the herbicidal activity pre-emergence result was “very good herbicidal activity”.

On to `Cc1cc(C)cc(N2CCC(Oc3nc(N)nc(C(C)F)n3)C2=O)c1` (stereo not shown) [Example A39], for which the herbicidal activity post-emergence result in test [1] is listed as “very good herbicidal activity”. Moreover, the herbicidal activity pre-emergence result in test [2] was “very good herbicidal activity”.

As for `Cc1nc(N)nc(NC2CCN(c3ccc(F)c(C)c3)C2=O)n1` (stereo not shown) [Example A6], the herbicidal activity post-emergence entry in test [1] is “very good herbicidal activity”. Also, the herbicidal activity pre-emergence result in test [2] is recorded as “very good herbicidal activity”.

As for `CC(C)c1nc(N)nc(NC2CCN(c3cccc(OC(F)(F)F)c3)C2)n1` (stereo not shown) [Example E24], in test [1], the herbicidal activity post-emergence entry is “very good herbicidal activity”. Besides, the herbicidal activity pre-emergence result in test [2] is recorded as “very good herbicidal activity”.

Regarding `Cc1cc(C)cc(N2CCC(Nc3nc(N)nc(C(C)(C)F)n3)C2)c1` (stereo not shown) [Example E25], in test [1], the herbicidal activity post-emergence entry is recorded as “very good herbicidal activity”. Moreover, in test [2], the herbicidal activity pre-emergence entry is listed as “very good herbicidal activity”.

Turning to `Cc1cc(N2CCC(Nc3nc(N)nc(C(C)C)n3)C2=O)ccc1F` (stereo not shown) [Example A24], the herbicidal activity post-emergence entry in test [1] is “very good herbicidal activity”. The herbicidal activity pre-emergence entry in test [2] is given as “very good herbicidal activity”.

In the case of `CC(F)c1nc(N)nc(OC2CCN(c3cccc(F)c3)C2=O)n1` (stereo not shown) [Example A44], the herbicidal activity post-emergence result in test [1] is listed as “very good herbicidal activity”. Besides, the herbicidal activity pre-emergence result in test [2] is “very good herbicidal activity”.

In the case of `CC(F)c1nc(N)nc(NC2CCN(c3cccc(C(F)(F)F)c3)C2)n1` (stereo not shown) [Example E20], the herbicidal activity post-emergence entry in test [1] is reported as “very good herbicidal activity”. Moreover, in test [2], the herbicidal activity pre-emergence result is “very good herbicidal activity”.

Consider `CC(C)(F)c1nc(N)nc(NC2CCN(c3ccccc3)C2=O)n1` (stereo not shown) [Example A35], for which, in test [1], the herbicidal activity post-emergence result is “very good herbicidal activity”. Also, the herbicidal activity pre-emergence result in test [2] is reported as “very good herbicidal activity”.

As to `COc1cccc(N2CCC(Nc3nc(N)nc(C(C)C)n3)C2=O)c1` (stereo not shown) [Example A25], in test [1], the herbicidal activity post-emergence result is given as “very good herbicidal activity”. For the same compound, in test [2], the herbicidal activity pre-emergence entry was “very good herbicidal activity”.

Source of the values: US20030171218A1, “Substituted 3-heteroaryl(amino- or oxy)pyrrolidin-2-ones, their preparation and use as herbicides or plant growth regulators” (priority 2001, published 2003).
